Measured values: patent US20240150293A1, “SPIROCYCLOHEXANE DERIVATIVES, PHARMACEUTICAL COMPOSITIONS CONTAINING THEM AND THEIR USES AS ANTI-APOPTOTIC INHIBITORS” (LES LABORATOIRES SERVIER, priority 2021, published 2024)
Like-named read-outs stand apart in the source and are kept apart here.

Tests used:
[1] = molecular target: Cy5-labelled Mcl1 (amino acids 171-321) C286S protein (UniProtKB Q07820) (Homo sapiens (Human), UniProt Q07820, C286S); assay: Inhibition of Mcl-1 by the fluorescence quenching assay (Example A, Method B); type: binding
Chain of Cy5-labelled Mcl1 (amino acids 171-321) C286S protein (Q07820 171-321 C286S): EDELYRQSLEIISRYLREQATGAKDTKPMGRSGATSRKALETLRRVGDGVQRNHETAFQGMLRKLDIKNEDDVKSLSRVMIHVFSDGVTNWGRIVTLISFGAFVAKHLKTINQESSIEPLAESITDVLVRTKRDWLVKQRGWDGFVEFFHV
Method in brief: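 Eleven-point compound series incubated 2 h at room temperature with 1 nM Cy5-tagged protein and quencher-labelled PUMA peptide at 10, 20 or 400 nM in HEPES/NaCl/Tween 20, pH 7.4, 5% DMSO. IC50 for 50% fluorescence increase by 4-parameter fit, then Ki derived (complete cKi or estimated eKi).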

NCI-H929 cell lines = assay: In vitro cytotoxicity, CellTiter-Glo (CTG) assay (Example B, Method B); type: cell-based; details: Homo sapiens, NCI-H929, 48 h, NCI-H929 cells, 48 h incubation, read-out: C50
Description: Cellular viability was monitored with the cell viability assay (Cell Titer-Glo®) on NCI-H929 cell lines. The CellTiter-Glo® (CTG) Luminescent Cell Viability Assay (from Promega) is a homogeneous method to determine the number of viable cells in culture based on quantitation of the ATP present, which signals the presence of metabolically active cells.
Concentration response of test compounds are performed with 10 mM stock solutions (DMSO), 11-points curve, in a 384-well compound plate. The assay plate is prepared by stamping 120 nL from compound dilution plate of all different concentrations (e.g. 10 mM to have final 30 μM assay test) into a cell culture microplate, using Echo acoustic liquid handling (Labcyte, Beckman). 40 μl of cell solution is added and cells are incubated with compounds for 48 h at 37° C., 5% CO2. CTG was added to the cells (according to the manufacturer instructions) and luminescence intensity was recorded using the Pherastar plate reader (BMG).
This assay provides in vitro cellular efficacy of compounds of Formula (I) tested, measuring the C50, defined as the concentration needed to reach 50% of the cellular viability.

Row | Compound | Ki ([1]; Ki determined from IC50) | Ki [1] | IC50 (NCI-H929 cell lines)
1 | Cc1c(Cl)cccc1N[C@]1(C(=O)O)CC[C@@]2(CC1)c1cc3c(cc1CN2C[C@@H](C)COc1ccnc2c1[C@H](C)CCC2)OCO3 [Example 50, (1r,4R)-4-(3-chloro-2-methylanilino)-6′-[(2R)-2-methyl-3-{[(5R)-5-methyl-5,6,7,8-tetrahydroquinolin-4-yl]oxy}propyl]-6′,7′-dihydro-2′H-spiro[cyclohexane-1,5′-[1,3]dioxolo[4,5-f]isoindole]-4-carboxylic acid] | 72 nM |  | 13500 nM
2 | CCOc1ccc2c(c1)[C@]1(CC[C@@](Nc3ccc(F)c(Cl)c3)(C(=O)O)CC1)[C@@H](C[C@@H](C)COc1ccnc3c1[C@H](C)CCC3)C2 [Example 785, (1r,2′S,4S)-4-(3-chloro-4-fluoroanilino)-6′-ethoxy-2′-[(2R)-2-methyl-3-{[(5R)-5-methyl-5,6,7,8-tetrahydroquinolin-4-yl]oxy}propyl]-2′,3′-dihydrospiro[cyclohexane-1,1′-indene]-4-carboxylic acid] |  | 0.122 nM | 61 nM
3 | C[C@@H](COc1ccnc2c1[C@H](C)CCC2)C[C@H]1Cc2ccc(-c3ccn(C)c3)cc2[C@]12CC[C@@](Nc1cccc(Cl)c1)(C(=O)O)CC2 [Example 883, (1r,2′S,4S)-4-(3-chloroanilino)-2′-[(2R)-2-methyl-3-{[(5R)-5-methyl-5,6,7,8-tetrahydroquinolin-4-yl]oxy}propyl]-6′-(1-methyl-1H-pyrrol-3-yl)-2′,3′-dihydrospiro[cyclohexane-1,1′-indene]-4-carboxylic acid] |  | 0.246 nM | 133 nM
4 | C[C@@H](COc1ccnc2c1[C@H](C)CCC2)C[C@H]1Cc2ccccc2[C@]12CC[C@@](Nc1ccc(F)c(Cl)c1F)(C(=O)O)CC2 [Example 707, (1r,2′S,4S)-4-(3-chloro-2,4-difluoroanilino)-2′-[(2R)-2-methyl-3-{[(5R)-5-methyl-5,6,7,8-tetrahydroquinolin-4-yl]oxy}propyl]-2′,3′-dihydrospiro[cyclohexane-1,1′-indene]-4-carboxylic acid] |  | 0.585 nM | 230 nM
5 | COC[C@H]1C[C@@H]1c1ccc2c(c1)[C@]1(CC[C@@](Nc3cccc(Cl)c3)(C(=O)O)CC1)[C@@H](C[C@@H](C)COc1ccnc3c1[C@H](C)CCC3)C2 [Example 874, (1r,2′S,4S)-4-(3-chloroanilino)-6′-[(1S,2S)-2-(methoxymethyl)cyclopropyl]-2′-[(2R)-2-methyl-3-{[(5R)-5-methyl-5,6,7,8-tetrahydroquinolin-4-yl]oxy}propyl]-2′,3′-dihydrospiro[cyclohexane-1,1′-indene]-4-carboxylic acid] |  | 0.161 nM | 113 nM

Continued by falling Ki [1], values first:

Row | Ki ([1]; Ki determined from IC50) | Ki [1] | Compound | IC50 (NCI-H929 cell lines)
6 |  | 0.0908 nM | COc1cc2c(cc1C)C[C@H](C[C@@H](C)COc1ccnc3c1[C@H](C)CCC3)[C@]21CC[C@](Nc2cccc(Cl)c2)(C(=O)O)CC1 [Example 813, (1r,2′S,4S)-4-(3-chloroanilino)-6′-methoxy-5′-methyl-2′-[(2R)-2-methyl-3-{[(5R)-5-methyl-5,6,7,8-tetrahydroquinolin-4-yl]oxy}propyl]-2′,3′-dihydrospiro[cyclohexane-1,1′-indene]-4-carboxylic acid] | 184 nM
7 |  | 0.0173 nM | CC1Oc2cc3c(cc2O1)[C@]1(CC[C@@](Nc2cccc(Cl)c2)(C(=O)O)CC1)[C@@H](C[C@@H](C)COc1ccnc2c1[C@H](C)CCC2)C3 (single isomer, unassigned) [Example 965] | 68.8 nM
8 |  | 0.0118 nM | C[C@@H](COc1ccnc2c1[C@H](C)CCC2)C[C@H]1Cc2cc3c(cc2[C@]12CC[C@@](Nc1cccc(Cl)c1)(C(=O)O)CC2)O[C@H](C)CO3 [Example 973, (1r,3′R,4S,7′S)-4-(3-chloroanilino)-3′-methyl-7′-[(2R)-2-methyl-3-{[(5R)-5-methyl-5,6,7,8-tetrahydroquinolin-4-yl]oxy}propyl]-2′,3′,7′,8′-tetrahydrospiro[cyclohexane-1,6′-indeno[5,6-b][1,4]dioxine]-4-carboxylic acid] | 34.3 nM
